From patent publication US10206399B2, “Herbicidal composition comprising uracil compound as active ingredient” (Dongbu Farm Hannong Co., Ltd., priority 2012, dated 2019)
Like-named read-outs stand apart in the source and are kept apart here.

Assays:
Digitaria sanguinalis = conditions: for plant mortality, measured value: Digitaria sanguinalis; for Digitaria sanguinalis mortality, measured value: 20 days after treatment
Text: (§1) X is % damage by uracil compound (a) of formula 1 at the rate of application of p kg/ha; Y is % damage by conventional herbicidal compound (b) at the rate of application of q kg/ha; and E is the expected damage caused by compounds (a) and (b) at a rate of application of p and q kg/ha.
(§2) The expected activity for a given combination of two herbicides can be calculated using equation 1 above.

Xanthium spinosum = test: whole plant or invertebrate
Text: as §1, §2

Aeschynomene indica = test: whole plant or invertebrate
Text: as §1, §2

Abutilon theophrasti = test: whole plant or invertebrate
Text: as §1, §2

Echinochloa crus = conditions: for plant mortality, measured value: Echinochloa crus; for Echinochloa crus mortality, measured value: 20 days after treatment
Text: as §1, §2

[1] = read-out: plant mortality, measured value, 50 g/ha
[2] = read-out: plant mortality, measured value, 100 g/ha
[3] = read-out: plant mortality, measured value, 200 g/ha
[4] = 480 h, read-out: Xanthium spinosum mortality, measured value
[5] = 480 h, read-out: Aeschynomene indica mortality, measured value
[6] = 480 h, read-out: Abutilon theophrasti mortality, measured value
[7] = read-out: plant mortality, measured value, 175 g/ha
[8] = read-out: plant mortality, measured value, 350 g/ha
[9] = read-out: plant mortality, measured value, 700 g/ha

O=C(O)COc1nc(Cl)c(Cl)cc1Cl [Triclopyr]
Data (measured value) Digitaria sanguinalis (Digitaria sanguinalis; 125 g/ha): 0 | Data (measured value) Digitaria sanguinalis (Digitaria sanguinalis; 250 g/ha): 0 | Data (measured value) Digitaria sanguinalis (Digitaria sanguinalis; 500 g/ha): 0 | pest or weed control at 125 g/ha (Xanthium spinosum; read-out: Data (measured value) Xanthium spinosum, 125 g/ha): 13% | pest or weed control at 250 g/ha (Xanthium spinosum; read-out: Data (measured value) Xanthium spinosum, 250 g/ha): 30% | pest or weed control at 500 g/ha (Xanthium spinosum; read-out: Data (measured value) Xanthium spinosum, 500 g/ha): 59% | pest or weed control at 125 g/ha (Aeschynomene indica; read-out: Data (measured value) Aeschynomene indica, 125 g/ha): 9% | pest or weed control at 250 g/ha (Aeschynomene indica; read-out: Data (measured value) Aeschynomene indica, 250 g/ha): 26% | pest or weed control at 500 g/ha (Aeschynomene indica; read-out: Data (measured value) Aeschynomene indica, 500 g/ha): 58% | pest or weed control at 125 g/ha (Abutilon theophrasti; read-out: Data (measured value) Abutilon theophrasti, 125 g/ha): 11% | pest or weed control at 250 g/ha (Abutilon theophrasti; read-out: Data (measured value) Abutilon theophrasti, 250 g/ha): 23% | pest or weed control at 500 g/ha (Abutilon theophrasti; read-out: Data (measured value) Abutilon theophrasti, 500 g/ha): 54% | Data (measured value) Echinochloa crus (Echinochloa crus; 125 g/ha): 0 | Data (measured value) Echinochloa crus (Echinochloa crus; 250 g/ha): 0 | Data (measured value) Echinochloa crus (Echinochloa crus; 500 g/ha): 0

Cc1cc(Cl)ccc1OC(C)C(=O)O (stereo not drawn) [Mecoprop]
Data (measured value) Digitaria sanguinalis (Digitaria sanguinalis; 200 g/ha): 0 | Data (measured value) Digitaria sanguinalis (Digitaria sanguinalis; 400 g/ha): 0 | Data (measured value) Digitaria sanguinalis (Digitaria sanguinalis; 800 g/ha): 0 | pest or weed control at 200 g/ha (Xanthium spinosum; read-out: Data (measured value) Xanthium spinosum, 200 g/ha): 9% | pest or weed control at 400 g/ha (Xanthium spinosum; read-out: Data (measured value) Xanthium spinosum, 400 g/ha): 19% | pest or weed control at 800 g/ha (Xanthium spinosum; read-out: Data (measured value) Xanthium spinosum, 800 g/ha): 45% | pest or weed control at 200 g/ha (Aeschynomene indica; read-out: Data (measured value) Aeschynomene indica, 200 g/ha): 8% | pest or weed control at 400 g/ha (Aeschynomene indica; read-out: Data (measured value) Aeschynomene indica, 400 g/ha): 24% | pest or weed control at 800 g/ha (Aeschynomene indica; read-out: Data (measured value) Aeschynomene indica, 800 g/ha): 55% | pest or weed control at 200 g/ha (Abutilon theophrasti; read-out: Data (measured value) Abutilon theophrasti, 200 g/ha): 14% | pest or weed control at 400 g/ha (Abutilon theophrasti; read-out: Data (measured value) Abutilon theophrasti, 400 g/ha): 29% | pest or weed control at 800 g/ha (Abutilon theophrasti; read-out: Data (measured value) Abutilon theophrasti, 800 g/ha): 64% | Data (measured value) Echinochloa crus (Echinochloa crus; 200 g/ha): 0 | Data (measured value) Echinochloa crus (Echinochloa crus; 400 g/ha): 0 | Data (measured value) Echinochloa crus (Echinochloa crus; 800 g/ha): 0

O=C(O)c1c(Cl)ccc2cc(Cl)cnc12 [Quinclorac]
plant mortality, measured value (Digitaria sanguinalis; 50 g/ha): 6 | plant mortality, measured value (Digitaria sanguinalis; 100 g/ha): 21 | plant mortality, measured value (Digitaria sanguinalis; 200 g/ha): 49 | pest or weed control at 50 g/ha (Xanthium spinosum; [1]): 11% | pest or weed control at 100 g/ha (Xanthium spinosum; [2]): 29% | pest or weed control at 200 g/ha (Xanthium spinosum; [3]): 62% | pest or weed control at 50 g/ha (Aeschynomene indica; [1]): 10% | pest or weed control at 100 g/ha (Aeschynomene indica; [2]): 27% | pest or weed control at 200 g/ha (Aeschynomene indica; [3]): 57% | pest or weed control at 50 g/ha (Abutilon theophrasti; [1]): 9% | pest or weed control at 100 g/ha (Abutilon theophrasti; [2]): 26% | pest or weed control at 200 g/ha (Abutilon theophrasti; [3]): 57% | plant mortality, measured value (Echinochloa crus; 50 g/ha): 13 | plant mortality, measured value (Echinochloa crus; 100 g/ha): 26 | plant mortality, measured value (Echinochloa crus; 200 g/ha): 55

CC(Oc1ccc(Oc2ncc(C(F)(F)F)cc2Cl)cc1)C(=O)O (stereo not drawn) [Haloxyfop, reference compound]
Digitaria sanguinalis mortality, measured value (Digitaria sanguinalis; 12.5 g/ha): 14% | Digitaria sanguinalis mortality, measured value (Digitaria sanguinalis; 25 g/ha): 29% | Digitaria sanguinalis mortality, measured value (Digitaria sanguinalis; 50 g/ha): 57% | mortality at 12.5 g/ha (Xanthium spinosum; [4]): 0% | mortality at 25 g/ha (Xanthium spinosum; [4]): 0% | mortality at 50 g/ha (Xanthium spinosum; [4]): 0% | mortality at 12.5 g/ha (Aeschynomene indica; [5]): 0% | mortality at 25 g/ha (Aeschynomene indica; [5]): 0% | mortality at 50 g/ha (Aeschynomene indica; [5]): 0% | mortality at 12.5 g/ha (Abutilon theophrasti; [6]): 0% | mortality at 25 g/ha (Abutilon theophrasti; [6]): 0% | mortality at 50 g/ha (Abutilon theophrasti; [6]): 0% | Echinochloa crus mortality, measured value (Echinochloa crus; 12.5 g/ha): 11% | Echinochloa crus mortality, measured value (Echinochloa crus; 25 g/ha): 28% | Echinochloa crus mortality, measured value (Echinochloa crus; 50 g/ha): 58%

Nc1cnn(-c2ccccc2)c(=O)c1Cl [Chloridazon]
plant mortality, measured value (Digitaria sanguinalis; 175 g/ha): 14 | plant mortality, measured value (Digitaria sanguinalis; 350 g/ha): 28 | plant mortality, measured value (Digitaria sanguinalis; 700 g/ha): 63 | pest or weed control at 175 g/ha (Xanthium spinosum; [7]): 7% | pest or weed control at 350 g/ha (Xanthium spinosum; [8]): 22% | pest or weed control at 700 g/ha (Xanthium spinosum; [9]): 46% | pest or weed control at 175 g/ha (Aeschynomene indica; [7]): 11% | pest or weed control at 350 g/ha (Aeschynomene indica; [8]): 29% | pest or weed control at 700 g/ha (Aeschynomene indica; [9]): 57% | pest or weed control at 175 g/ha (Abutilon theophrasti; [7]): 14% | pest or weed control at 350 g/ha (Abutilon theophrasti; [8]): 30% | pest or weed control at 700 g/ha (Abutilon theophrasti; [9]): 64% | plant mortality, measured value (Echinochloa crus; 175 g/ha): 13 | plant mortality, measured value (Echinochloa crus; 350 g/ha): 27 | plant mortality, measured value (Echinochloa crus; 700 g/ha): 54
